System: A549 cells
Experiment: Microarray analysis of gene expression after LAQ824 treatment
Assay type: cell-based, human
Conditions: for Fold change AMP-activated protein kinase family member 5 (ARK5) 204589_at / Fold change ANP32B acidic (leucine-rich) nuclear phosphoprotein 32 family, member B (SSP29) 201305_x_at / Fold change AVEN apoptosis, caspase activation inhibitor (Aven) 219366_at / Fold change B-cell CLL/lymphoma 3 (BCL3) 204908_s_at / Fold change BAI1-associated protein 2 (BAP2, IRSp53) 205293_x_at / Fold change BAI1-associated protein 3 (BAP3, KIAA0734) 204874_x_at / Fold change BAI1-associated protein 3 (BAP3, KIAA0734) 216356_x_at / Fold change BCL2-associated athanogene 2 (BAG-2) 209406_at / Fold change BCL2-interacting killer (apoptosis-inducing) (BP4, NBK, BIP1) 205780_at / Fold change BCL2-like 1 (BCL2L1) 206665_s_at / Fold change BH3 interacting domain death agonist (BID) 204493_at / Fold change Cyclin A2 (CCN1, CCNA) 203418_at / Fold change Cyclin-dependent kinase inhibitor 2D (p19, inhibits CDK4) (INK4D) 210240_s_at / Fold change DEC1-anti apoptosis (BHLHB2) 201169_s_at / Fold change Diphtheria toxin receptor (heparin-binding epidermal growth factor-like growth factor) (DTR) 203821_at / Fold change Early growth response 1 (TIS8, NGFI-A, KROX-24, ZIF-268) 201694_s_at / Fold change GMCL germ cell-less homolog (Drosophila) (GMCL) 218458_at / Fold change Katanin p80 (WD40-containing) subunit B 1 (KAT) 203163_at / Fold change NACHT, leucine rich repeat and PYD containing 1 (PP1044) 218380_at / Fold change Paternally expressed Gene 10 (PEG10) 212092_at / Fold change Paternally expressed Gene 10 (PEG10) 212094_at / Fold change Protein regulator of cytokinesis 1 (PRC1) 218009_s_at / Fold change SKAP55 protein 216899_s_at / Fold change Secreted frizzled-related protein 1 (FRP, SARP2) 202036_s_at / Fold change Secreted frizzled-related protein 1 (FRP, SARP2) 202037_s_at / Fold change Serine/threonine kinase 6 (AIK) 208079_s_at / Fold change Tribbles homolog 3a (TRIB3) 218145_at / Fold change Tumor necrosis factor receptor superfamily, member 6 (TNFRSF6) 215719_x_at / Fold change Tumor necrosis factor receptor superfamily, member 6 (TNFRSF6) 216252_x_at / Fold change Tumor protein p53 (Li-Fraumeni syndrome) 201746_at / Fold change Tumor protein p53 (Li-Fraumeni syndrome) 211300_s_at / Fold change member of the N-myc downregulated gene family (NDRG4) 209159_s_at: A549, 500 nM vs DMSO
Experimental: The human lung carcinoma cell line A549 is obtained from the American Type Culture Collection (Rockville, Md.) and cultured in F-12K (ATCC, Manassas, Va.), 10% fetal bovine serum, and 1% penicillin/streptomycin (Life Technologies, Inc.). LAQ824 (Novartis) is added directly to the cell medium at a final concentration of 500 nM. Microarray analysis is performed essentially as described previously (Welsh, 2001). Total RNA is prepared from A549 cells treated with LAQ 824 or DMSO for 0.5, 2, 6, 12 and 24 h. Labelled cDNA is prepared and hybridized to Affymetrix U133 oligonucleotide GeneChip® (Affymetrix, Santa Clara, Calif.). The arrays were scanned on an Affymetrix GeneArray scanner and analyzed with GENECHIP Microarray Analysis Suite 5.0 software (MAS5) (Affymetrix). The data (raw data including image files and scanner files (Cel. Files) as well as the MAS5 normalized data are stored in the DEMON Database. The MAS5 normalized data are exported from the database and analyzed using GeneSpring software version 6.1. The genes are filtered for a minimal expression of 100 in at least one condition (the condition being defined as the average the value for the 3 samples corresponding to a given time point and a treatement) The gene expression changes (fold change) are calculated for each time point (t) as follow: (Gene expression level LAQ824 treated—(Average of the 3 replicates) Time (t))/(Gene expression level DMSO treated—(Average of the 3 replicates) Time (t)).
Any fold change <0 indicated a down regulation or reduction of the mRNA production, any fold change >0 indicated an up regulation or increase of mRNA production. Genes are filtered according to the fold change and the statistical significance of the changes (1-way-ANOVA test p<0.05)).

Structure (SMILES): O=C(/C=C/c1ccc(CN(CCO)CCc2c[nH]c3ccccc23)cc1)NO [LAQ824, N-Hydroxy-3-[4-[[(2-hydroxyethyl)[2-(1H-indol-3-yl)-ethyl]-amino]methyl]phenyl]-2E-2-propenamide]
- Fold change AMP-activated protein kinase family member 5 (ARK5) 204589_at (12 h): −4.6 fold
- Fold change ANP32B acidic (leucine-rich) nuclear phosphoprotein 32 family, member B (SSP29) 201305_x_at (12 h): −5.1 fold
- Fold change AVEN apoptosis, caspase activation inhibitor (Aven) 219366_at (12 h): −2.6 fold
- Fold change B-cell CLL/lymphoma 3 (BCL3) 204908_s_at (12 h): −5.5 fold
- Fold change BAI1-associated protein 2 (BAP2, IRSp53) 205293_x_at (12 h): 6.8 fold
- Fold change BAI1-associated protein 3 (BAP3, KIAA0734) 204874_x_at (12 h): 15.9 fold
- Fold change BAI1-associated protein 3 (BAP3, KIAA0734) 216356_x_at (12 h): 27.9 fold
- Fold change BCL2-associated athanogene 2 (BAG-2) 209406_at (12 h): −3.3 fold
- Fold change BCL2-interacting killer (apoptosis-inducing) (BP4, NBK, BIP1) 205780_at (12 h): 12.0 fold
- Fold change BCL2-like 1 (BCL2L1) 206665_s_at (12 h): −7.6 fold
- Fold change BH3 interacting domain death agonist (BID) 204493_at (12 h): −3.6 fold
- Fold change Cyclin A2 (CCN1, CCNA) 203418_at (12 h): −2.3 fold
- Fold change Cyclin-dependent kinase inhibitor 2D (p19, inhibits CDK4) (INK4D) 210240_s_at (12 h): 4.8 fold
- Fold change DEC1-anti apoptosis (BHLHB2) 201169_s_at (12 h): −4.8 fold
- Fold change Diphtheria toxin receptor (heparin-binding epidermal growth factor-like growth factor) (DTR) 203821_at (12 h): 13.1 fold
- Fold change Early growth response 1 (TIS8, NGFI-A, KROX-24, ZIF-268) 201694_s_at (12 h): 11.2 fold
- Fold change GMCL germ cell-less homolog (Drosophila) (GMCL) 218458_at (12 h): 3.8 fold
- Fold change Katanin p80 (WD40-containing) subunit B 1 (KAT) 203163_at (12 h): 4.3 fold
- Fold change NACHT, leucine rich repeat and PYD containing 1 (PP1044) 218380_at (12 h): 11.3 fold
- Fold change Paternally expressed Gene 10 (PEG10) 212092_at (12 h): 3.8 fold
- Fold change Paternally expressed Gene 10 (PEG10) 212094_at (12 h): 3.5 fold
- Fold change Protein regulator of cytokinesis 1 (PRC1) 218009_s_at (12 h): −2.5 fold
- Fold change SKAP55 protein 216899_s_at (12 h): 1.8 fold
- Fold change Secreted frizzled-related protein 1 (FRP, SARP2) 202036_s_at (12 h): 3.9 fold
- Fold change Secreted frizzled-related protein 1 (FRP, SARP2) 202037_s_at (12 h): 3.9 fold
- Fold change Serine/threonine kinase 6 (AIK) 208079_s_at (12 h): −2.4 fold
- Fold change Tribbles homolog 3a (TRIB3) 218145_at (12 h): −4.0 fold
- Fold change Tumor necrosis factor receptor superfamily, member 6 (TNFRSF6) 215719_x_at (12 h): −6.3 fold
- Fold change Tumor necrosis factor receptor superfamily, member 6 (TNFRSF6) 216252_x_at (12 h): −4.9 fold
- Fold change Tumor protein p53 (Li-Fraumeni syndrome) 201746_at (12 h): −4.4 fold
- Fold change Tumor protein p53 (Li-Fraumeni syndrome) 211300_s_at (12 h): −3.7 fold
- Fold change member of the N-myc downregulated gene family (NDRG4) 209159_s_at (12 h): 7.3 fold
- Fold change AMP-activated protein kinase family member 5 (ARK5) 204589_at (24 h): −1.9 fold
- Fold change ANP32B acidic (leucine-rich) nuclear phosphoprotein 32 family, member B (SSP29) 201305_x_at (24 h): −7.3 fold
- Fold change AVEN apoptosis, caspase activation inhibitor (Aven) 219366_at (24 h): −8.2 fold
- Fold change B-cell CLL/lymphoma 3 (BCL3) 204908_s_at (24 h): −1.8 fold
- Fold change BAI1-associated protein 2 (BAP2, IRSp53) 205293_x_at (24 h): 3.6 fold
- Fold change BAI1-associated protein 3 (BAP3, KIAA0734) 204874_x_at (24 h): 10.9 fold
- Fold change BAI1-associated protein 3 (BAP3, KIAA0734) 216356_x_at (24 h): 19.2 fold
- Fold change BCL2-associated athanogene 2 (BAG-2) 209406_at (24 h): −4.4 fold
- Fold change BCL2-interacting killer (apoptosis-inducing) (BP4, NBK, BIP1) 205780_at (24 h): 15.5 fold
- Fold change BCL2-like 1 (BCL2L1) 206665_s_at (24 h): −2.0 fold
- Fold change BH3 interacting domain death agonist (BID) 204493_at (24 h): −4.6 fold
- Fold change Cyclin A2 (CCN1, CCNA) 203418_at (24 h): −13.3 fold
- Fold change Cyclin-dependent kinase inhibitor 2D (p19, inhibits CDK4) (INK4D) 210240_s_at (24 h): 2.0 fold
- Fold change DEC1-anti apoptosis (BHLHB2) 201169_s_at (24 h): −1.9 fold
- Fold change Diphtheria toxin receptor (heparin-binding epidermal growth factor-like growth factor) (DTR) 203821_at (24 h): 3.2 fold
- Fold change Early growth response 1 (TIS8, NGFI-A, KROX-24, ZIF-268) 201694_s_at (24 h): 4.6 fold
- Fold change GMCL germ cell-less homolog (Drosophila) (GMCL) 218458_at (24 h): 2.3 fold
- Fold change Katanin p80 (WD40-containing) subunit B 1 (KAT) 203163_at (24 h): 2.9 fold
- Fold change NACHT, leucine rich repeat and PYD containing 1 (PP1044) 218380_at (24 h): 22.7 fold
- Fold change Paternally expressed Gene 10 (PEG10) 212092_at (24 h): 7.0 fold
- Fold change Paternally expressed Gene 10 (PEG10) 212094_at (24 h): 6.5 fold
- Fold change Protein regulator of cytokinesis 1 (PRC1) 218009_s_at (24 h): −5.1 fold
- Fold change SKAP55 protein 216899_s_at (24 h): 4.0 fold
- Fold change Secreted frizzled-related protein 1 (FRP, SARP2) 202036_s_at (24 h): 4.5 fold
- Fold change Secreted frizzled-related protein 1 (FRP, SARP2) 202037_s_at (24 h): 4.4 fold
- Fold change Serine/threonine kinase 6 (AIK) 208079_s_at (24 h): −8.3 fold
- Fold change Tribbles homolog 3a (TRIB3) 218145_at (24 h): −10.1 fold
- Fold change Tumor necrosis factor receptor superfamily, member 6 (TNFRSF6) 215719_x_at (24 h): −4.8 fold
- Fold change Tumor necrosis factor receptor superfamily, member 6 (TNFRSF6) 216252_x_at (24 h): −5.6 fold
- Fold change Tumor protein p53 (Li-Fraumeni syndrome) 201746_at (24 h): −7.1 fold
- Fold change Tumor protein p53 (Li-Fraumeni syndrome) 211300_s_at (24 h): −7.3 fold
- Fold change member of the N-myc downregulated gene family (NDRG4) 209159_s_at (24 h): 4.5 fold
- NF—Y gene expression in response to LAQ824 treatment (A549 cells, DNA microarray analysis): significantly up-regulated

From US20070082339A1, “Methods and compositions for screening for HDAC inhibitory activity” (priority 2005, published 2007)
